Values of other authors as cited in PMC6839502 (Journal of Alzheimer's Disease, 2019).

Tested on: Cathepsin D (Cat D)
Details: FP assay; cited from earlier work

For `C[C@H]1C[C@H]2CSC(N)=N[C@@]2(c2nc(NC(=O)c3ccc(OC(F)F)cn3)cs2)CO1` [PF-06751979], the “Selectivity over Cathepsin D” value is listed as ~2500 fold.
